Data reported in patent publication US10329283B2, “G protein-coupled receptor kinase inhibitors and methods for use of the same” (THE REGENTS OF THE UNIVERSITY OF MICHIGAN, priority 2015, dated 2019).
pIC50: −log10 of the molar value. Where a name gives a salt, the structure may show the parent alone.

Assays:
GRK2 [1] = molecular target: T1, GRK2 (Homo sapiens, UniProt P25098); details: in words; Setyawan et al. 1999, Tesmer et al. 2010; cited from earlier work
T1 sequence (P25098 1-689): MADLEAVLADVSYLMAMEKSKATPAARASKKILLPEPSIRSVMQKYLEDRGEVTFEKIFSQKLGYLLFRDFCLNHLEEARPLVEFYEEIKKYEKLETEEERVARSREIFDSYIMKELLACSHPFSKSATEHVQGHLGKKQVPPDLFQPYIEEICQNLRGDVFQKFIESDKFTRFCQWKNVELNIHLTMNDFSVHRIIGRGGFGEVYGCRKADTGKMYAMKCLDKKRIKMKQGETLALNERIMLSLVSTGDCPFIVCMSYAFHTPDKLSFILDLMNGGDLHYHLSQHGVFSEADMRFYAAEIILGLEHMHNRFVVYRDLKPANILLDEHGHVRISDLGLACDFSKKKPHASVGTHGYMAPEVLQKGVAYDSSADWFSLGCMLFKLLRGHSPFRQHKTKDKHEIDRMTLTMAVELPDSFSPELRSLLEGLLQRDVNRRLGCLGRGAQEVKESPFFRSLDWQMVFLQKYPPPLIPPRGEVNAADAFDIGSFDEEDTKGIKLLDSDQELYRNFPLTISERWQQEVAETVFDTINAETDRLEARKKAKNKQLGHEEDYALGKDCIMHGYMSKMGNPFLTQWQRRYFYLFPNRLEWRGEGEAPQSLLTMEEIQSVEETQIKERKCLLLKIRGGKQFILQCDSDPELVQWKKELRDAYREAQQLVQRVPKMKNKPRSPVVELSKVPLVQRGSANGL

GRK1 = molecular target: T2, GRK1 (Bos taurus, UniProt P28327); assay: GRK1 kinetic assay for inhibition of GRKs (phosphorimaging); format: biochemical; details: 50 nM GRK, 5 μM ATP, 500 nM bROS or tubulin, 5 min
T2 sequence (P28327 1-535 limits assumed): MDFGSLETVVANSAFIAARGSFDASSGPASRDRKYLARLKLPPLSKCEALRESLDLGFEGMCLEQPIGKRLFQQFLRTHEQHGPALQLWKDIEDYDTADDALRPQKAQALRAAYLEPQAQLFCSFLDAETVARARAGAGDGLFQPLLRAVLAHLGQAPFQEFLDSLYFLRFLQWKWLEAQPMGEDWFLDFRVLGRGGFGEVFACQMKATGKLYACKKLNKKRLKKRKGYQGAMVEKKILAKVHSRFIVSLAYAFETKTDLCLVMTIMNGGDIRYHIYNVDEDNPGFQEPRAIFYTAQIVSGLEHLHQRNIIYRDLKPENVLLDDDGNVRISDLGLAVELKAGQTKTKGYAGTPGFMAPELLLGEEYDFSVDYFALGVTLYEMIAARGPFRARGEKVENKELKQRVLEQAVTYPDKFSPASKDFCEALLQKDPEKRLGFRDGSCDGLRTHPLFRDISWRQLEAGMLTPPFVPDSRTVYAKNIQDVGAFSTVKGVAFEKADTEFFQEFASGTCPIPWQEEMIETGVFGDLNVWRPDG
Experimental: (§1) The low salt concentration and DDM were used to maximize GRK activity and disrupt small molecule aggregates from forming, respectively. […] Data was analyzed and inhibition curves were fit via GraphPad Prism.

GRK2 [2] = molecular target: T1, GRK2; assay: GRK2 kinetic assay for inhibition of GRKs (phosphorimaging); format: biochemical; details: 50 nM GRK, 5 μM ATP, 500 nM bROS or tubulin, 5 min
Experimental: as §1

GRK5 = GRK5 (Homo sapiens, UniProt P34947); assay: GRK5 kinetic assay for inhibition of GRKs (phosphorimaging); format: biochemical; details: 50 nM GRK, 5 μM ATP, 500 nM bROS or tubulin, 5 min
GRK5, sequence (P34947 whole entry, species assumed): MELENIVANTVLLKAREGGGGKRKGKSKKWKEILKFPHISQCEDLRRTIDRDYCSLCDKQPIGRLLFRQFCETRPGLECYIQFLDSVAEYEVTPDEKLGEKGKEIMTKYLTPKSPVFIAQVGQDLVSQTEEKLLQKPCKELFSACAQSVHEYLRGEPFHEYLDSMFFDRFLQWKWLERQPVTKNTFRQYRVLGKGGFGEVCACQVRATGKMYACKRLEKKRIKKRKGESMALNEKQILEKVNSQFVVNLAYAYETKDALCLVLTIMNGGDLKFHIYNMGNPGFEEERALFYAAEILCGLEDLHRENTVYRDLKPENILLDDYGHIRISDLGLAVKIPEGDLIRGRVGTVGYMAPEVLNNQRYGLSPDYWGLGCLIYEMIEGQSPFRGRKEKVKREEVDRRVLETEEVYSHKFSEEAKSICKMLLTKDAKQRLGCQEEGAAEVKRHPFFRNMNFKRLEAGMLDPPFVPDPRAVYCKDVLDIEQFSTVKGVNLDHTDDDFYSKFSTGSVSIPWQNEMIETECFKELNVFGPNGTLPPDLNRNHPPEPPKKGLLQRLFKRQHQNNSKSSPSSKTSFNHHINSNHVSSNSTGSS
Experimental: as §1

[3] = in words; Thal et al., Mol Pharmacol 2011; cited from earlier work

Row | pIC50 (GRK1) | pIC50 (GRK2 [2]) | pIC50 (GRK5) | Structure (SMILES) | inhibition of GRK2 (GRK2 [1]) | bioavailability [3]
1 |  |  |  | O=C(N[C@@H]1CNCCC[C@H]1OC(=O)c1cc(O)c(C(=O)c2c(O)cccc2C(=O)O)c(O)c1)c1ccc(O)cc1 [balanol] | low nanomolar range | 
2 | 4.95 | 6.00 | 4.25 | Cc1cccc(C)c1CNC(=O)c1cc([C@@H]2CCNC[C@H]2COc2ccc3c(c2)OCO3)ccc1F [Example E13, 5-((3S,4R)-3-((benzo[d][1,3]dioxol-5-yloxy)methyl)piperidin-4-yl)-N-(2,6-dimethylbenzyl)-2-fluorobenzamide hydrochloride] |  | 
3 | 4.40 | 6.40 | 5.09 | COc1cccc(OC)c1CNC(=O)c1cc([C@@H]2CCNC[C@H]2COc2cc3cn[nH]c3cc2F)ccc1F [Example E31, N-(2,6-dimethoxybenzyl)-2-fluoro-5-((3S,4R)-3-(((6-fluoro-1H-indazol-5-yl)oxy)methyl)piperidin-4-yl)benzamide] |  | 
4 |  |  |  | CCCn1c(CNc2cccc(C(=O)NCc3c(F)cccc3F)c2)nnc1-c1ccncn1 [Takeda103A] |  | poor bioavailability
5 | 4.02 | 6.38 | < 4.00 | O=C(Cc1cc([C@@H]2CCNC[C@H]2COc2ccc3c(c2)OCO3)ccc1F)NCCc1c(F)cccc1F [Example E02, 2-(5-((3S,4R)-3-((benzo[d][1,3]dioxol-5-yloxy)methyl)piperidin-4-yl)-2-fluorophenyl)-N-(2,6-difluorophenethyl)acetamide hydrochloride] |  | 
6 | < 4.00 | 5.60 | < 4.00 | O=C(Cc1cc([C@@H]2CCNC[C@H]2COc2ccc3c(c2)OCO3)ccc1F)NCc1c(F)cccc1F [Example E01, 2-(5-((3S,4R)-3-((benzo[d][1,3]dioxol-5-yloxy)methyl)piperidin-4-yl)-2-fluorophenyl)-N-(2,6-difluorobenzyl)acetamide hydrochloride] |  | 

Row | Structure (SMILES) | pIC50 (GRK1) | pIC50 (GRK2 [2]) | pIC50 (GRK5) | inhibition of GRK2 (GRK2 [1]) | bioavailability [3]
7 | Fc1ccc([C@@H]2CCNC[C@H]2COc2cc3cn[nH]c3cc2F)cc1 [Example E30, 6-fluoro-5-(((3S,4R)-4-(4-fluorophenyl)piperidin-3-yl)methoxy)-1H-indazole] | 5.44 | 6.85 | 6.09 |  | 
8 | Fc1ccc([C@@H]2CCNC[C@H]2COc2ccc3[nH]ncc3c2)cc1 [Example E18, 5-(((3S,4R)-4-(4-fluorophenyl)piperidin-3-yl)methoxy)-1H-indazole] | 4.18 | 7.15 | 4.89 |  | 
